Data taken from patent US20150316556A1, “SSEA4 AND ST3GAL2 AS CHEMOTHERAPEUTIC DRUG RESPONSE BIOMARKERS” (Miltenyi Biotech GmbH, priority 2014, published 2015).

Experiments:
[1] = tested on: epithelial breast cell line MCF10A; assay: EMT induction in epithelial breast cell line by TGFβ1; type: cell-based, human
Experimental: The expression of SSEA4 was evaluated upon EMT induction. To induce a mesenchymal transition, the epithelial breast cell line MCF10A was treated with TGFβ1 at concentrations of 10 and 20 ng/ml. […] F-actin was stained by Phalloidin to visualize the cytoskeleton architecture. […] The fraction of SSEA4 positive cells was increased upon EMT induction (FIG. 8E) verifying that expression of SSEA4 indicates a more mesenchymal phenotype.
The results of the mRNA and the miRNA analysis strongly indicate that the expression of SSEA4 correlates with a more mesenchymal phenotype. […] To induce a mesenchymal transition, the epithelial breast cell line MCF10A was treated with TGFβ1 at concentrations of 10 and 20 ng/ml. […] Previously known key EMT markers like EpCAM, E-cadherin, Vimentin, and Fibronectin were regulated as expected, proving the efficiency of EMT induction using our method (FIG. 8 and data not shown). […] Strikingly, the fraction of SSEA4 positive cells was increased upon EMT induction verifying the correlation between SSEA4 expression and a more mesenchymal phenotype (FIG. 8).

[2] = tested on: primary tumor cell line derived from model HBCx-17 (suspension and adherent cells); assay: IC50 values of commonly used chemotherapeutic drugs on suspension versus adherent subpopulations of a primary tumor cell line; type: cell-based, human; conditions: HBCx-17 derived primary tumor cell line; n=3; suspension vs adherent subpopulation

| Molecule | IC50 values of suspension cells (higher SSEA4 expression) compared to adherent cells [2] | also measured |
| --- | --- | --- |
| TGFβ1: TGFβ1 used to induce a mesenchymal transition (EMT) in MCF10A cells |  | cell morphology upon treatment ([1]; TGFβ1 10 and 20 ng/ml): almost all cells changed their morphology from a compacted colony type to an elongated fibroblastic shape; epithelial marker E-cadherin expression upon treatment ([1]; TGFβ1 10 and 20 ng/ml): downregulated; epithelial marker EpCAM expression upon treatment ([1]; TGFβ1 10 and 20 ng/ml): downregulated; fraction of SSEA4 positive cells upon EMT induction ([1]; TGFβ1 10 and 20 ng/ml): increased; mesenchymal marker Fibronectin expression upon treatment ([1]; TGFβ1 10 and 20 ng/ml): upregulated; invasive potential of treated cells ([1]; TGFβ1, data not shown): strongly increased |
| COc1cc([C@@H]2c3cc4c(cc3[C@@H](O[C@@H]3O[C@@H]5CO[C@@H](C)O[C@H]5[C@H](O)[C@H]3O)[C@H]3COC(=O)[C@H]23)OCO4)cc(OC)c1O [Etoposide] | no difference |  |
| CC(=O)O[C@@]12CO[C@@H]1C[C@H](O)[C@@]1(C)C(=O)[C@H](O)C3=C(C)[C@@H](OC(=O)[C@H](O)[C@@H](NC(=O)OC(C)(C)C)c4ccccc4)C[C@@](O)([C@@H](OC(=O)c4ccccc4)[C@H]21)C3(C)C [Docetaxel] | higher IC50 values |  |
| O=c1[nH]cc(F)c(=O)[nH]1 [5-Fluorouracil] | higher IC50 values |  |
| COc1cccc2c1C(=O)c1c(O)c3c(c(O)c1C2=O)C[C@@](O)(C(=O)CO)C[C@@H]3O[C@H]1C[C@H](N)[C@H](O)[C@H](C)O1 [doxorubicin] | higher IC50 values |  |

Continued, in another order:

| IC50 values of suspension cells (higher SSEA4 expression) compared to adherent cells [2] | Molecule | also measured |
| --- | --- | --- |
| decreased IC50 values | CC[C@@]1(O)C(=O)OCc2c1cc1n(c2=O)Cc2cc3c(CN(C)C)c(O)ccc3nc2-1 [Topotecan] |  |
| decreased IC50 values | CCc1c2c(nc3ccc(OC(=O)N4CCC(N5CCCCC5)CC4)cc13)-c1cc3c(c(=O)n1C2)COC(=O)[C@]3(O)CC [Irinotecan] |  |
